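Results reflect a 48-hour exposure of cells in 96-well plates to compound at five concentrations. The concentration for 50% growth inhibition is given as GI50.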 Activity calls are given as the source filed them. No stated cut-off is given here; in the data, active = GI50 up to about 1.1 µM and inactive = higher.
How the values were obtained:
Test in all cases: inhibition of tumour cell growth, NCI panel, 48 h
RXF 393 = tested on: RXF 393
NCI-H460 = tested on: NCI-H460
A498 = tested on: A498
CCRF-CEM = tested on: CCRF-CEM
EKVX = tested on: EKVX
CAKI-1 = tested on: CAKI-1
DU-145 = tested on: DU-145
RPMI-8226 = tested on: RPMI-8226
Hs-578T = tested on: Hs-578T
UACC-62 = tested on: UACC-62
HCT-15 = tested on: HCT-15
SN12C = tested on: SN12C
SW-620 = tested on: SW-620
SF-268 = tested on: SF-268
M14 = tested on: M14
BT-549 = tested on: BT-549
SF-295 = tested on: SF-295
TK-10 = tested on: TK-10
SF-539 = tested on: SF-539

Compound | GI50 (RXF 393) | GI50 (NCI-H460) | GI50 (A498) | GI50 (CCRF-CEM) | GI50 (EKVX) | GI50 (CAKI-1) | GI50 (DU-145) | GI50 (RPMI-8226) | GI50 (Hs-578T) | GI50 (UACC-62) | GI50 (HCT-15) | GI50 (SN12C) | GI50 (SW-620) | GI50 (SF-268) | GI50 (M14) | GI50 (BT-549) | GI50 (SF-295) | GI50 (TK-10) | GI50 (SF-539)
Cc1ccc(Nc2cn(COCc3ccccc3)c(=O)[nH]c2=O)cc1 | > 100 µM (inactive) | > 100 µM (inactive) | > 100 µM (inactive) | > 100 µM (inactive) | > 100 µM (inactive) | 65.5 µM (inactive) | > 100 µM (inactive) | > 100 µM (inactive) | 24.9 µM (inactive) | 43.9 µM (inactive) | > 100 µM | > 100 µM (inactive) | > 100 µM (inactive) | 27.8 µM (inactive) | > 100 µM (inactive) | 11.7 µM (inactive) | 39.7 µM (inactive) | – | –
CCOC(=O)N1CCN(c2ccc3ccc(N)nc3n2)CC1 | – | 71.6 µM (inactive) | – | 50.1 µM (inactive) | > 100 µM (inactive) | > 100 µM (inactive) | > 100 µM (inactive) | > 100 µM (inactive) | > 100 µM (inactive) | > 100 µM (inactive) | > 100 µM | > 100 µM (inactive) | > 100 µM (inactive) | > 100 µM (inactive) | > 100 µM (inactive) | > 100 µM (inactive) | > 100 µM (inactive) | > 100 µM (inactive) | > 100 µM (inactive)
C/N=c1/oc2ccccc2cc1C(N)=O | > 100 µM (inactive) | > 100 µM (inactive) | – | > 100 µM (inactive) | 30.8 µM (inactive) | > 100 µM (inactive) | > 100 µM (inactive) | > 100 µM (inactive) | 16.9 µM (inactive) | 64.1 µM (inactive) | > 100 µM | > 100 µM (inactive) | > 100 µM (inactive) | > 100 µM (inactive) | > 100 µM (inactive) | > 100 µM (inactive) | > 100 µM (inactive) | > 100 µM (inactive) | > 100 µM (inactive)
Cc1cccc(/N=N/C(=N\NC(=O)c2cc(Cl)ccc2O)c2ccc(N(CCC#N)CCC#N)cc2C)c1 | 30.4 µM (inactive) | 26.1 µM (inactive) | – | 8.79 µM (inactive) | 34.7 µM (inactive) | 30.6 µM (inactive) | 39.6 µM (inactive) | 14.9 µM (inactive) | 77.6 µM (inactive) | 24 µM (inactive) | 27.7 µM | 24 µM (inactive) | 46.7 µM (inactive) | 30.1 µM (inactive) | 45.5 µM (inactive) | 24.2 µM (inactive) | 40.3 µM (inactive) | 20 µM (inactive) | 33.3 µM (inactive)
Cc1nn(C(=O)c2ccc(Cl)cc2)c2c1C(c1ccco1)SC(=N)N2 (stereo unspecified) | > 10 µM (inactive) | > 10 µM (inactive) | – | > 10 µM (inactive) | > 10 µM (inactive) | > 10 µM (inactive) | > 10 µM (inactive) | > 10 µM (inactive) | > 10 µM (inactive) | > 10 µM (inactive) | > 10 µM | > 10 µM (inactive) | > 10 µM (inactive) | > 10 µM (inactive) | > 10 µM (inactive) | > 10 µM (inactive) | > 10 µM (inactive) | > 10 µM (inactive) | > 10 µM (inactive)
CCOC(=O)C1C(=O)C=C(c2cc(C)ccc2O)CC1c1cccc(Br)c1 (stereo unspecified) | 14.4 µM (inactive) | 19.5 µM (inactive) | – | 19.4 µM (inactive) | 24 µM (inactive) | 21.9 µM (inactive) | 34.4 µM (inactive) | 13.9 µM (inactive) | 14.8 µM (inactive) | 14 µM (inactive) | 3.24 µM | 16.9 µM (inactive) | 25 µM (inactive) | 19.5 µM (inactive) | 17.4 µM (inactive) | 24.9 µM (inactive) | 13.6 µM (inactive) | 17.7 µM (inactive) | 16.2 µM (inactive)
c1ccc2c(c1)nc1n2CCCn2ccnc2-1 | > 100 µM (inactive) | > 100 µM (inactive) | > 100 µM (inactive) | – | 43 µM (inactive) | – | > 100 µM (inactive) | > 100 µM (inactive) | > 100 µM (inactive) | > 100 µM (inactive) | 41.1 µM | > 100 µM (inactive) | > 100 µM (inactive) | > 100 µM (inactive) | > 100 µM (inactive) | > 100 µM (inactive) | > 100 µM (inactive) | – | 96.2 µM (inactive)
Cc1cccc(-c2cc(O)c3cccnc3n2)c1 | 6.24 µM (inactive) | 0.475 µM (active) | – | 0.935 µM (active) | 2.34 µM (inactive) | – | 3.94 µM (inactive) | 0.679 µM (active) | 0.444 µM (active) | 0.292 µM (active) | 0.299 µM | 2.75 µM (inactive) | 0.431 µM (active) | 59 µM (inactive) | 0.555 µM (active) | > 100 µM (inactive) | 1.36 µM (inactive) | – | 0.92 µM (active)
O=S(=O)(c1ccc(/N=N/O)nc1)c1ccc2ccccc2c1 | – | 65.8 µM (inactive) | > 100 µM (inactive) | 29.3 µM (inactive) | > 100 µM (inactive) | 88.5 µM (inactive) | > 100 µM (inactive) | – | > 100 µM (inactive) | 98.4 µM (inactive) | > 100 µM | 95.5 µM (inactive) | > 100 µM (inactive) | > 100 µM (inactive) | > 100 µM (inactive) | > 100 µM (inactive) | > 100 µM (inactive) | 94 µM (inactive) | > 100 µM (inactive)
CCNc1nc(N)c(C(=O)c2cccs2)s1 | 3.42 µM (inactive) | 20.4 µM (inactive) | 31 µM (inactive) | – | 26.2 µM (inactive) | 8.69 µM (inactive) | 8.99 µM (inactive) | – | 38.1 µM (inactive) | 24.2 µM (inactive) | 14.9 µM | 30 µM (inactive) | 8.59 µM (inactive) | 32.8 µM (inactive) | 37.8 µM (inactive) | 20.8 µM (inactive) | 34 µM (inactive) | 48 µM (inactive) | 15.5 µM (inactive)
O=C1CCCC2=C1CC1=C(CCCC1=O)N2c1cccc2ccccc12 | 10.9 µM (inactive) | > 100 µM (inactive) | > 100 µM (inactive) | 47.3 µM (inactive) | > 100 µM (inactive) | > 100 µM (inactive) | – | > 100 µM (inactive) | 33.8 µM (inactive) | 64.1 µM (inactive) | 66.7 µM | > 100 µM (inactive) | > 100 µM (inactive) | 45.1 µM (inactive) | > 100 µM (inactive) | 26.8 µM (inactive) | – | > 100 µM (inactive) | > 100 µM (inactive)
Cn1c(N)c(/C=N/NC(=O)CC#N)c(=O)n(C)c1=O | > 100 µM (inactive) | > 100 µM (inactive) | > 100 µM (inactive) | > 100 µM (inactive) | > 100 µM (inactive) | > 100 µM (inactive) | > 100 µM (inactive) | > 100 µM (inactive) | > 100 µM (inactive) | > 100 µM (inactive) | > 100 µM | > 100 µM (inactive) | > 100 µM (inactive) | > 100 µM (inactive) | > 100 µM (inactive) | > 100 µM (inactive) | > 100 µM (inactive) | > 100 µM (inactive) | –
CCCCCCCCCCCCCCCCCCNc1ccn(C2OC(COP(=O)(O)OCC3CCC(n4cnc5c(=O)[nH]cnc54)O3)C(O)C2O)c(=O)n1 (stereo unspecified) | 19.9 µM (inactive) | > 100 µM (inactive) | > 100 µM (inactive) | 29.3 µM (inactive) | > 100 µM (inactive) | > 100 µM (inactive) | > 100 µM (inactive) | – | > 100 µM (inactive) | > 100 µM (inactive) | 97.5 µM | > 100 µM (inactive) | > 100 µM (inactive) | > 100 µM (inactive) | > 100 µM (inactive) | > 100 µM (inactive) | > 100 µM (inactive) | 19.5 µM (inactive) | 83.8 µM (inactive)
O=C(O)Cn1ccc(=O)c2c([N+](=O)[O-])cccc21 | – | > 100 µM (inactive) | > 100 µM (inactive) | > 100 µM (inactive) | – | > 100 µM (inactive) | > 100 µM (inactive) | – | > 100 µM (inactive) | > 100 µM (inactive) | > 100 µM | > 100 µM (inactive) | > 100 µM (inactive) | > 100 µM (inactive) | > 100 µM (inactive) | > 100 µM (inactive) | > 100 µM (inactive) | > 100 µM (inactive) | > 100 µM (inactive)
Cc1cnc2sn(-c3ccc([N+](=O)[O-])cc3)c(=O)c2c1 | – | 60.4 µM (inactive) | – | – | 74.1 µM (inactive) | – | 99.3 µM (inactive) | > 100 µM (inactive) | 53.5 µM (inactive) | 64.7 µM (inactive) | > 100 µM | > 100 µM (inactive) | > 100 µM (inactive) | 54.1 µM (inactive) | > 100 µM (inactive) | 43.2 µM (inactive) | 45.3 µM (inactive) | 75.2 µM (inactive) | –
Cc1cc(CNC(=O)OCc2ccccc2)c(C)c2c1Oc1ccccc1O2 | 12.7 µM (inactive) | > 100 µM (inactive) | 23 µM (inactive) | > 100 µM (inactive) | 42.9 µM (inactive) | 21.1 µM (inactive) | 71 µM (inactive) | > 100 µM (inactive) | 19.7 µM (inactive) | 26.5 µM (inactive) | 97.5 µM | 24.3 µM (inactive) | > 100 µM (inactive) | 20.7 µM (inactive) | 69.7 µM (inactive) | 62.8 µM (inactive) | 31.8 µM (inactive) | 41.8 µM (inactive) | –
NCCNCC(O)CO (stereo unspecified) | > 100 µM (inactive) | > 100 µM (inactive) | > 100 µM (inactive) | – | > 100 µM (inactive) | > 100 µM (inactive) | > 100 µM (inactive) | > 100 µM (inactive) | > 100 µM (inactive) | > 100 µM (inactive) | > 100 µM | > 100 µM (inactive) | > 100 µM (inactive) | > 100 µM (inactive) | > 100 µM (inactive) | > 100 µM (inactive) | > 100 µM (inactive) | > 100 µM (inactive) | > 100 µM (inactive)

From ChEMBL document CHEMBL1201862, “PubChem BioAssay data set” (2004)
